Assay results as given in article PMC6709486, “Safety, Tolerability, Pharmacokinetics, and Drug Interaction Potential of SPR741, an Intravenous Potentiator, after Single and Multiple Ascending Doses and When Combined with β-Lactam Antibiotics in Healthy Subjects” (Antimicrobial Agents and Chemotherapy, 2019).

Assay: clinical
Conditions: in vivo, iv
Text: The drug-drug interaction study was a phase 1, single-center, multiarm, open-label, randomized, three-period crossover study. The objective was to evaluate the DDI potential and the PK of SPR741 coadministered with each of three partner antibiotics as well as the DDI and PK effects of three partner antibiotics administered alone and with SPR741. The study comprised a screening phase (day −28 to day −2), three treatment arms (day 1 to day 8 for each arm), and an end-of-study follow-up (day 9). Each subject participated in screening, one treatment arm, and the end-of-study follow-up. The maximum duration of participation for each subject was approximately 37 days. Subjects remained in the clinical unit from the day before dosing (day −1) to 24 h after the third and last dose period (day 8).
The DDI study consisted of three treatment arms with three dosing periods in each arm (days 1, 4, and 7). In random sequence, subjects received a single dose of study treatments with a 2-day washout period between each assigned treatment. In treatment arm 1, subjects received 400 mg of SPR741 i.v. over 1 h, 400 mg of SPR741 i.v. over 1 h plus 1.0 g of ceftazidime i.v. over 1 h, and 1.0 g of ceftazidime i.v. over 1 h. In treatment arm 2, subjects received 400 mg of SPR741 i.v. over 1 h, 400 mg of SPR741 i.v. over 1 h plus 4.5 g of piperacillin-tazobactam i.v. over 1 h, and 4.5 g of piperacillin-tazobactam i.v. over 1 h.
For both studies, maximum plasma concentration (Cmax), area under the concentration-time curve from time zero to the last measurable time point (AUC0-t), area under the concentration-time curve from time zero to infinity (AUC0-inf), time to maximum concentration (Tmax), terminal elimination rate constant (kel), terminal half-life (t1/2), terminal clearance (CL), and volume of distribution (V) were determined. PK parameters were determined using WinNonlin Phoenix, version 6.4.
For the SAD phase, blood samples were obtained predose (within 10 min), at 30 min following the start of infusion, at the end of infusion, and at 75, 90, 105, 120, and 150 min and 3, 4, 5, 6, 8, 10, 12, and 24 h following the start of infusion. For the MAD phase, blood was obtained predose (within 10 min), at 30 min following the start of infusion, at the end of infusion, and at 90 and 150 min and 3, 4, 5, 6, and 8 h following the start of infusion (day 1, first dose; day 14, last dose). Five additional blood samples were obtained at 10, 12, 24, 36, and 48 h following the start of infusion of the last dose (morning of day 14). For the DDI study, blood samples for determining plasma concentrations of SPR741 and each partner antibiotic were obtained predose (within −10 min), at 30 min, and at 1 h, 1 h 15 min, 1 h 30 min, 1 h 45 min, 2, 4, 8, 12, and 24 h postdose for each dose period. Plasma samples for drug concentration measurements were analyzed using a validated high-pressure liquid chromatography tandem mass spectrometry (HPLC-MS/MS) method. In brief, samples were spiked with a stable isotope-labeled internal standard and then extracted by protein precipitation before injection onto the HPLC-MS/MS system. Unique transitions were monitored for all test articles and internal standards. Plasma concentrations below the limit of quantitation were reported as 0.
In the SAD/MAD study, geometric means were calculated for AUC and Cmax values. Analyses using linear models were performed to assess dose proportionality (both single dose and multiple dose), time dependence, accumulation, and attainment of steady state (multiple dose). Dose proportionality was assessed using linear models for the SAD and MAD cohorts separately. […] Point estimates and 90% confidence intervals (CIs), using the residual mean square error obtained from the ANOVA, were constructed for the comparisons between treatments. The point and CI estimates were back-transformed to give estimates of the ratios (percentages) of the geometric LSMs and corresponding 90% CIs.

Row | AUC0-inf, geometric LSM, reference treatment | AUC0-t | AUC0-τ, geometric LSM, reference treatment | AUC(0-inf) | CL | Cmax | Cmax, geometric LSM, reference treatment | Tmax | V | kel | Structure (SMILES)
1 | 30,200 h·ng/ml | 32,000 ± 5,060 (15.8) ng·h/ml | 30,200 h·ng/ml | 32,000 ± 5,060 (15.8) ng·h/ml | 16.1 ± 3.0 (18.4) liters/h | 18,500 ± 2,610 (14.1) ng/ml | 17,600 ng/ml | 1.0 ± 0 (1.2) h | 41.6 ± 6.5 (15.6) liters | 0.40 ± 0.12 (30.8) 1/h | C[C@]1(Cn2ccnn2)[C@H](C(=O)O)N2C(=O)C[C@H]2S1(=O)=O [Tazobactam, tazobactam]
2 | 228,000 h·ng/ml | 240,000 ± 33,000 (13.7) ng·h/ml | 228,000 h·ng/ml | 240,000 ± 33,000 (13.7) ng·h/ml | 19.1 ± 3.0 (15.8) liters/h | 154,000 ± 23,500 (15.2) ng/ml | 145,000 ng/ml | 1.0 ± 0 (1.2) h | 60.7 ± 10.6 (17.4) liters | 0.32 ± 0.02 (5.6) 1/h | CCN1CCN(C(=O)N[C@@H](C(=O)N[C@@H]2C(=O)N3[C@@H]2SC(C)(C)[C@@H]3C(=O)O)c2ccccc2)C(=O)C1=O [Piperacillin, piperacillin]
3 | 163,000 h·ng/ml | 162,000 ± 22,400 (13.8) ng·h/ml | 163,000 h·ng/ml | 163,000 ± 22,500 (13.8) ng·h/ml | 6.3 ± 0.8 (12.8) liters/h | 70,200 ± 5,790 (8.2) ng/ml | 70,300 ng/ml | 1.0 ± 0 (0) h | 24.0 ± 3.1 (12.8) liters | 0.26 ± 0.01 (3.1) 1/h | CC(C)(O/N=C(\C(=O)N[C@@H]1C(=O)N2C(C(=O)[O-])=C(C[n+]3ccccc3)CS[C@H]12)c1csc(N)n1)C(=O)O [Ceftazidime, ceftazidime]

Same assay, conditions: in vivo, iv

Row | t1/2 | Structure (SMILES)
4 | 1.9 ± 0.4 (22.4) h | C[C@]1(Cn2ccnn2)[C@H](C(=O)O)N2C(=O)C[C@H]2S1(=O)=O [Tazobactam, tazobactam]
5 | 2.2 ± 0.1 (5.7) h | CCN1CCN(C(=O)N[C@@H](C(=O)N[C@@H]2C(=O)N3[C@@H]2SC(C)(C)[C@@H]3C(=O)O)c2ccccc2)C(=O)C1=O [Piperacillin, piperacillin]
6 | 2.7 ± 0.1 (3.1) h | CC(C)(O/N=C(\C(=O)N[C@@H]1C(=O)N2C(C(=O)[O-])=C(C[n+]3ccccc3)CS[C@H]12)c1csc(N)n1)C(=O)O [Ceftazidime, ceftazidime]
